Assay results published in patent US20090036422A1 (priority 2007, published 2009).
Where a name gives a salt, the structure may show the parent alone.

The compounds below were run against T1, human orexin-2 (hOX2) receptor (Homo sapiens, UniProt O43614) (assay: Intracellular Ca2+ mobilization assay (FLIPR), CHO(dHFr-) cells expressing hOX2, orexin-A at EC80 as agonist). Conditions: Kb=IC50/(1+[A]/EC50); CHO(dHFr-)-OX2R cells, antagonist applied 25 min before orexin-A EC80.
T1 construct: expressed in transfected cells
T1 sequence (O43614 1-444): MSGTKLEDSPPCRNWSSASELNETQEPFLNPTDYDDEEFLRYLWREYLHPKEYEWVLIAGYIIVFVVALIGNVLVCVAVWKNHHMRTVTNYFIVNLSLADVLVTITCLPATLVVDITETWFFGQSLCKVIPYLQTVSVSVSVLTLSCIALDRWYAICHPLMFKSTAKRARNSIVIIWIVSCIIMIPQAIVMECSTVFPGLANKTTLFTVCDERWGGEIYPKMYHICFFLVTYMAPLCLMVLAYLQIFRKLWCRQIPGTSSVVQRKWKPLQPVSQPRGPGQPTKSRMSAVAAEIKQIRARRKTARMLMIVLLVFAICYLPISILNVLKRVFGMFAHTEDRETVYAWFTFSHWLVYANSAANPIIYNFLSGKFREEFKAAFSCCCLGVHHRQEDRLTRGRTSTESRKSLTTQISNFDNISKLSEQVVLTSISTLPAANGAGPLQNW
Format: cell-based
Experimental: Intracellular Ca^2+ Mobilization Assay
The Chinese Hamster Ovary (dHFr−) mutant cell line stably expressing human orexin-1 (hOX1) or human orexin-2 (hOX2) receptors were maintained in Dulbecco's Modified Eagle Medium (1×) with GlutaMax™ 1, 4500 mg/L D-Glucose and Sodium Pyruvate (Catalog No. 31966-021, Invitrogen, Carlsbad, Calif.), 5% dialyzed fetal calf serum (Catalog No. 26400-044), 100 μg/ml penicillin and 100 μg/ml streptomycin. The cells were seeded at 5×10^4 cells/well in the poly-D-lysine treated, 96-well, black/clear-bottomed plates (Catalog No. BD356640, BD Biosciences, Palo Alto, Calif.). 24 h later, the cells were loaded for 1 h at 37° C. with 4 μM Flou-4 acetoxymethyl ester (Catalog No. F-14202, Molecular Probes, Eugene, Oreg.) in FLIPR buffer (1×HBSS, 20 mM HEPES, 2.5 mM Probenecid). Hanks' Balanced Salt Solution (HBSS) (10×) (catalog No. 14065-049) and HEPES (1M) (catalog No. 15630-056) were purchased from Invitrogen, Carlsbad, Calif. Probenecid (250 mM) (catalog No. P8761) was from Sigma, Buchs, Switzerland. The cells were washed five times with FLIPR buffer to remove excess dye and intracellular calcium mobilization, [Ca^2+]i were measured using a Fluorometric Imaging Plate Reader (FLIPR-96, Molecular Devices, Menlo Park, Calif.) as described previously (Malherbe et al., Mol. Pharmacol., 64, 823-832, 2003). Orexin A (catalog No. 1455, Toris Cookson Ltd, Bristol, UK) was used as agonist. Orexin A (50 mM stock solution in DMSO) was diluted in FLIPR buffer +0.1% BSA. The EC50 and EC80 values of orexin-A were measured daily from standard agonist concentration-response curves in CHO(dHFr−) —OX1R and —OX2R cell lines. All compounds were dissolved in 100% DMSO. Inhibition curves were determined by addition of 11 concentrations (0.0001-10 μM) of inhibitory compounds and using EC80 value of orexin-A as agonist (a concentration which gave 80% of max agonist response, determined daily). The antagonists were applied 25 min (incubation at 37° C.) before the application of the agonist. Responses were measured as peak increase in fluorescence minus basal, normalized to the maximal stimulatory effect induced by EC80 value of orexin-A or orexin-B. Inhibition curves were fitted according to the Hill equation: y=100/(1+(x/IC50)^nH), where nH=slope factor using Excel-fit 4 software (Microsoft).
Kb values were calculated according to the following equation Kb=IC50/(1+[A]/EC50) where A is the concentration of agonist added which is very close to agonist EC80 value, and IC50 and EC50 values were derived from the antagonist inhibition and orexin-A or B agonist curves, respectively.
For `Cc1cccc(N(CCc2ccc(C(F)(F)F)cc2)C(=O)C(N)c2ccccc2)c1` (stereo not shown) [Example 70, 2-Amino-2-phenyl-N-m-tolyl-N-[2-(4-trifluoromethyl-phenyl)-ethyl]-acetamide], the Kb was 0.0579 µM. `COc1ccc(N(CCc2ccc(C(F)(F)F)cc2)C(=O)[C@@H](NC2COC2)c2ccccc2)cc1OC` [Example 72, (S)—N-(3,4-Dimethoxy-phenyl)-2-(oxetan-3-ylamino)-2-phenyl-N-[2-(4-trifluoromethyl-phenyl)-ethyl]-acetamide] was tested, and the Kb was 0.0023 µM. `COc1ccc(N(CCc2ccc(C(F)(F)F)cc2)C(=O)C(N)c2ccccc2)cc1` (stereo not shown) [Example 75, 2-Amino-N-(4-methoxy-phenyl)-2-phenyl-N-[2-(4-trifluoromethyl-phenyl)-ethyl]-acetamide] gave a Kb of 0.0523 µM. `COc1ccc(CCN(C(=O)C(N)c2ccccc2)c2ccc(OC(F)(F)F)cc2)cc1OC` (stereo not shown) [Example 78, 2-Amino-N-[2-(3,4-dimethoxy-phenyl)-ethyl]-2-phenyl-N-(4-trifluoromethoxy-phenyl)-acetamide] gave a Kb of 0.0444 µM. Work on `Cc1cc(N(CCc2ccc(C(F)(F)F)cc2)C(=O)C(N)c2ccccc2)ccc1F` (stereo not shown) [Example 83, 2-Amino-N-(4-fluoro-3-methyl-phenyl)-2-phenyl-N-[2-(4-trifluoromethyl-phenyl)-ethyl]-acetamide] yielded a Kb of 0.0698 µM. Work on `Cc1ccc(N(CCc2ccc(C(F)(F)F)cc2)C(=O)C(N)c2ccccc2)cc1C` (stereo not shown) [Example 84, 2-Amino-N-(3,4-dimethyl-phenyl)-2-phenyl-N-[2-(4-trifluoromethyl-phenyl)-ethyl]-acetamide] yielded a Kb of 0.0666 µM. With `COc1ccc(N(CCc2ccc(C(F)(F)F)cc2)C(=O)C(N)c2cccc(F)c2)cc1OC` (stereo not shown) [Example 85, 2-Amino-N-(3,4-dimethoxy-phenyl)-2-(3-fluoro-phenyl)-N-[2-(4-trifluoromethyl-phenyl)-ethyl]-acetamide] the Kb was 0.0074 µM. With `Cc1ccc(CCN(C(=O)C(N)c2ccccc2)c2ccc(F)c(C)c2)cc1` (stereo not shown) [Example 88, 2-Amino-N-(4-fluoro-3-methyl-phenyl)-2-phenyl-N-(2-p-tolyl-ethyl)-acetamide] the Kb was 0.0819 µM. Compound `Cc1ccc(CCN(C(=O)C(N)c2ccccc2)c2ccc(C)c(C)c2)cc1` (stereo not shown) [Example 89, 2-Amino-N-(3,4-dimethyl-phenyl)-2-phenyl-N-(2-p-tolyl-ethyl)-acetamide] has a Kb of 0.0241 µM. With `Cc1ccc(N(CCc2ccc(Cl)cc2)C(=O)C(N)c2ccccc2)cc1C` (stereo not shown) [Example 93, 2-Amino-N-[2-(4-chloro-phenyl)-ethyl]-N-(3,4-dimethyl-phenyl)-2-phenyl-acetamide] the Kb was 0.0888 µM. `NC(C(=O)N(CCc1ccc(C(F)(F)F)cc1)c1cccc(C2(O)COC2)c1)c1ccccc1` (stereo not shown) [Example 95, 2-Amino-N-[3-(3-hydroxy-oxetan-3-yl)-phenyl]-2-phenyl-N-[2-(4-trifluoromethyl-phenyl)-ethyl]-acetamide] gave a Kb of 0.0834 µM. `CN[C@H](C(=O)N(CCc1ccc(C(F)(F)F)cc1)c1ccc(OC)c(OC)c1)c1ccccc1OC` [Example 101, (S)—N-(3,4-Dimethoxy-phenyl)-2-(2-methoxy-phenyl)-2-methylamino-N-[2-(4-trifluoromethyl-phenyl)-ethyl]-acetamide hydrochloride] was tested, and the Kb was 0.0133 µM. For `COc1ccc(N(CCc2ccc(C(F)(F)F)cc2)C(=O)[C@@H](N)c2ccccc2OC)cc1OC` [Example 103, (S)-2-Amino-N-(3,4-dimethoxy-phenyl)-2-(2-methoxy-phenyl)-N-[2-(4-trifluoromethyl-phenyl)-ethyl]-acetamide hydrochloride], the Kb was 0.0053 µM. `COc1cc(N(CCc2ccc(C(F)(F)F)cc2)C(=O)C(N)c2ccccc2)ccc1F` (stereo not shown) [Example 104, 2-Amino-N-(4-fluoro-3-methoxy-phenyl)-2-phenyl-N-[2-(4-trifluoromethyl-phenyl)-ethyl]-acetamide] gave a Kb of 0.022 µM. With `NC(C(=O)N(CCc1ccc(C(F)(F)F)cc1)c1ccc(OC(F)F)cc1)c1ccccc1` (stereo not shown) [Example 105, 2-Amino-N-(4-difluoromethoxy-phenyl)-2-phenyl-N-[2-(4-trifluoromethyl-phenyl)-ethyl]-acetamide] the Kb was 0.0414 µM. `Cc1ccc(CCN(C(=O)C(NCCO)c2ccccc2)c2ccc(C)c(C)c2)cc1` (stereo not shown) [Example 106, N-(3,4-Dimethyl-phenyl)-2-(2-hydroxy-ethylamino)-2-phenyl-N-(2-p-tolyl-ethyl)-acetamide] showed a Kb of 0.0071 µM. `NC(C(=O)N(CCc1ccc(C(F)(F)F)cc1)c1cccc(OC(F)F)c1)c1ccccc1` (stereo not shown) [Example 107, 2-Amino-N-(3-difluoromethoxy-phenyl)-2-phenyl-N-[2-(4-trifluoromethyl-phenyl)-ethyl]-acetamide] was tested, and the Kb was 0.0509 µM. For `COc1ccc(Cl)c(N(CCc2ccc(C(F)(F)F)cc2)C(=O)C(N)c2ccccc2)c1` (stereo not shown) [Example 110, 2-Amino-N-(2-chloro-5-methoxy-phenyl)-2-phenyl-N-[2-(4-trifluoromethyl-phenyl)-ethyl]-acetamide], the Kb was 0.0335 µM. Compound `COCC(C)NC(C(=O)N(CCc1ccc(C)cc1)c1ccc(C)c(C)c1)c1ccccc1` (stereo not shown) [Example 120, N-(3,4-Dimethyl-phenyl)-2-(2-methoxy-1-methyl-ethylamino)-2-phenyl-N-(2-p-tolyl-ethyl)-acetamide] has a Kb of 0.0446 µM. Work on `Cc1ccc(CCN(C(=O)C(NCC(C)O)c2ccccc2)c2ccc(C)c(C)c2)cc1` (stereo not shown) [Example 121, N-(3,4-Dimethyl-phenyl)-2-(2-hydroxy-propylamino)-2-phenyl-N-(2-p-tolyl-ethyl)-acetamide] yielded a Kb of 0.0109 µM. `Cc1ccc(CCN(C(=O)C(NC(C)CO)c2ccccc2)c2ccc(C)c(C)c2)cc1` (stereo not shown) [Example 122, N-(3,4-Dimethyl-phenyl)-2-(2-hydroxy-1-methyl-ethylamino)-2-phenyl-N-(2-p-tolyl-ethyl)-acetamide] showed a Kb of 0.0225 µM. Compound `Cc1ccc(CCN(C(=O)C(NC(CO)C(C)C)c2ccccc2)c2ccc(C)c(C)c2)cc1` (stereo not shown) [Example 123, N-(3,4-Dimethyl-phenyl)-2-(1-hydroxymethyl-2-methyl-propylamino)-2-phenyl-N-(2-p-tolyl-ethyl)-acetamide] has a Kb of 0.0727 µM. With `CCC(COC)NC(C(=O)N(CCc1ccc(C)cc1)c1ccc(C)c(C)c1)c1ccccc1` (stereo not shown) [Example 125, N-(3,4-Dimethyl-phenyl)-2-(1-methoxymethyl-propylamino)-2-phenyl-N-(2-p-tolyl-ethyl)-acetamide] the Kb was 0.0267 µM. `CC(=O)NCCNC(C(=O)N(CCc1ccc(C)cc1)c1ccc(C)c(C)c1)c1ccccc1` (stereo not shown) [Example 126, 2-(2-Acetylamino-ethylamino)-N-(3,4-dimethyl-phenyl)-2-phenyl-N-(2-p-tolyl-ethyl)-acetamide] gave a Kb of 0.0086 µM. With `Cc1ccc(CCN(C(=O)C(NCC2CCCO2)c2ccccc2)c2ccc(C)c(C)c2)cc1` (stereo not shown) [Example 127, N-(3,4-Dimethyl-phenyl)-2-phenyl-2-[(tetrahydro-furan-2-ylmethyl)-amino]-N-(2-p-tolyl-ethyl)-acetamide] the Kb was 0.0222 µM. `COC(CNC(C(=O)N(CCc1ccc(C)cc1)c1ccc(C)c(C)c1)c1ccccc1)OC` (stereo not shown) [Example 129, 2-(2,2-Dimethoxy-ethylamino)-N-(3,4-dimethyl-phenyl)-2-phenyl-N-(2-p-tolyl-ethyl)-acetamide] gave a Kb of 0.0173 µM. `Cc1ccc(CCN(C(=O)C(NCc2ccco2)c2ccccc2)c2ccc(C)c(C)c2)cc1` (stereo not shown) [Example 130, N-(3,4-Dimethyl-phenyl)-2-[(furan-2-ylmethyl)-amino]-2-phenyl-N-(2-p-tolyl-ethyl)-acetamide] was tested, and the Kb was 0.0416 µM. In the case of `CCC(O)CNC(C(=O)N(CCc1ccc(C)cc1)c1ccc(C)c(C)c1)c1ccccc1` (stereo not shown) [Example 131, N-(3,4-Dimethyl-phenyl)-2-(2-hydroxy-butylamino)-2-phenyl-N-(2-p-tolyl-ethyl)-acetamide], the Kb was 0.022 µM.
